Experimental data from PubChem BioAssay (NCI).
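Where inhibition never reached the appropriate level, the endpoint shown equals the highest concentration tested. Otherwise, values were interpolated linearly from a five-concentration, 48-hour dose response in 96-well plates. At the TGI there is no net growth.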 Where a SMILES comes first, the peptide text is derived from it. [ ]: non-standard residue; d: D form. The star is where a group is joined. Tyr(3-Br) = N[C@@H](Cc1ccc(O)c(Br)c1)C(=O)O; Boc = CC(C)(C)OC(=O)*

Legend:
Test in all cases: growth of human tumour cells (NCI), 48 h
786-0 renal = tested on: 786-0 renal
NCI/ADR-RES ovarian = tested on: NCI/ADR-RES ovarian
UACC-62 melanoma = tested on: UACC-62 melanoma
OVCAR-3 ovarian = tested on: OVCAR-3 ovarian
A549 NSCLC = tested on: A549 NSCLC
HOP-62 NSCLC = tested on: HOP-62 NSCLC
RPMI-8226 leukemia = tested on: RPMI-8226 leukemia
RXF 393 renal = tested on: RXF 393 renal
SF-295 CNS = tested on: SF-295 CNS
OVCAR-8 ovarian = tested on: OVCAR-8 ovarian
T-47D breast = tested on: T-47D breast
SF-268 CNS = tested on: SF-268 CNS
SNB-75 CNS = tested on: SNB-75 CNS
SNB-19 CNS = tested on: SNB-19 CNS
SK-MEL-2 melanoma = tested on: SK-MEL-2 melanoma
OVCAR-5 ovarian = tested on: OVCAR-5 ovarian
EKVX NSCLC = tested on: EKVX NSCLC
PC-3 prostate = tested on: PC-3 prostate
COLO 205 colon = tested on: COLO 205 colon
NCI-H226 lung = tested on: NCI-H226 lung

SMILES	TGI (786-0 renal)	TGI (NCI/ADR-RES ovarian)	TGI (UACC-62 melanoma)	TGI (OVCAR-3 ovarian)	TGI (A549 NSCLC)	TGI (HOP-62 NSCLC)	TGI (RPMI-8226 leukemia)	TGI (RXF 393 renal)	TGI (SF-295 CNS)	TGI (OVCAR-8 ovarian)	TGI (T-47D breast)	TGI (SF-268 CNS)	TGI (SNB-75 CNS)	TGI (SNB-19 CNS)	TGI (SK-MEL-2 melanoma)	TGI (OVCAR-5 ovarian)	TGI (EKVX NSCLC)	TGI (PC-3 prostate)	TGI (COLO 205 colon)	TGI (NCI-H226 lung)
C/C1=C/C(C)CC(C)OC(=O)C(C)NC(=O)C(Cc2ccc(O)c(I)c2)N(C)C(=O)C(C)NC(=O)C(C)C1 (configuration not stated)	3.79 µM	24.4 µM	15 µM	< 0.01 µM	> 100 µM	< 0.01 µM	10.1 µM	< 0.0106 µM	1.25 µM	17.9 µM	29.1 µM	0.347 µM	< 0.01 µM	> 100 µM	5.67 µM	> 100 µM	–	–	–	–
COC(=O)[C@H](Cc1ccc(O)c(Br)c1)NC(=O)[C@H](Cc1ccc(O)cc1)NC(=O)OC(C)(C)C (Boc-Tyr-[Tyr(3-Br)]-OMe)	> 100 µM	> 100 µM	–	38.3 µM	> 100 µM	> 100 µM	91 µM	–	> 100 µM	37.5 µM	44.4 µM	> 100 µM	> 100 µM	> 100 µM	> 100 µM	> 100 µM	> 100 µM	> 100 µM	> 100 µM	> 100 µM
CCOC(=O)Cc1csc2[n+]1C(=O)/C(=C/c1cccc(OC)c1O)S2	> 100 µM	> 100 µM	> 100 µM	> 100 µM	> 100 µM	> 100 µM	–	–	> 100 µM	> 100 µM	> 100 µM	–	> 100 µM	> 100 µM	> 100 µM	> 100 µM	> 100 µM	> 100 µM	> 100 µM	> 100 µM
O=C(NNC(c1ccccc1)C(F)(F)F)c1ccncc1 (configuration not stated)	> 100 µM	> 100 µM	–	–	> 100 µM	> 100 µM	> 100 µM	–	> 100 µM	> 100 µM	–	> 100 µM	> 100 µM	> 100 µM	> 100 µM	> 100 µM	> 100 µM	> 100 µM	> 100 µM	> 100 µM
C/C=C\C(CC(=O)NCCC1CN(S(=O)(=O)C(F)(F)F)c2ccccc21)CC(=O)OC (configuration not stated)	> 100 µM	> 100 µM	> 100 µM	> 100 µM	> 100 µM	> 100 µM	> 100 µM	> 100 µM	> 100 µM	> 100 µM	–	–	–	> 100 µM	94 µM	> 100 µM	> 100 µM	> 100 µM	63 µM	–
NC(=O)NC(=O)c1cccc(CNc2ccc(C(=O)N[C@@H](CCC(=O)O)C(=O)O)cc2)n1	> 100 µM	> 100 µM	> 100 µM	> 100 µM	> 100 µM	–	> 100 µM	–	> 100 µM	> 100 µM	–	> 100 µM	–	–	> 100 µM	> 100 µM	> 100 µM	> 100 µM	> 100 µM	> 100 µM
O=C(Cc1csc(N=Nc2c(O)[nH]c3ccccc23)n1)Nc1ccccc1	34.3 µM	41 µM	–	93.3 µM	> 100 µM	52.2 µM	–	> 100 µM	> 100 µM	65.8 µM	> 100 µM	41.4 µM	86.9 µM	85.4 µM	> 100 µM	> 100 µM	52.8 µM	–	> 100 µM	–
COc1cc(/C=C2/SC(c3ccccc3)N(c3ccccc3)C2=O)cc(OC)c1OC (configuration not stated)	> 100 µM	> 100 µM	> 100 µM	> 100 µM	> 100 µM	> 100 µM	66.6 µM	> 100 µM	> 100 µM	> 100 µM	> 100 µM	> 100 µM	–	> 100 µM	> 100 µM	> 100 µM	> 100 µM	–	> 100 µM	> 100 µM
COc1ccc2c(c1)/C(=C\c1c(C)nc3sc(C)cn13)C(=O)N2	72.7 µM	> 42.6 µM	97.9 µM	3.93 µM	> 100 µM	> 100 µM	> 64.8 µM	–	> 20.4 µM	41.6 µM	> 100 µM	53.7 µM	–	> 100 µM	> 28.3 µM	74.4 µM	44.2 µM	> 100 µM	–	> 87.6 µM
CC1(C)CC(=O)C2=C(C1)NC1=C(C(=O)CC(C)(C)C1)C2c1ccc([N+](=O)[O-])cc1	> 100 µM	–	> 100 µM	> 100 µM	> 100 µM	> 100 µM	> 100 µM	> 100 µM	> 100 µM	> 100 µM	> 100 µM	> 100 µM	69.6 µM	> 100 µM	> 100 µM	> 100 µM	> 100 µM	> 100 µM	> 100 µM	> 100 µM
CCCCc1ccc(Nc2nc(=S)c3[nH]cnc3[nH]2)cc1	> 100 µM	40.3 µM	35.1 µM	43 µM	> 100 µM	–	90.4 µM	–	78.7 µM	–	49.3 µM	> 100 µM	–	56.8 µM	52.1 µM	43.5 µM	–	> 100 µM	31.2 µM	31.6 µM
Cc1nc(C(N)=S)sc1C(/C=C/c1ccc(Cl)c(Cl)c1)=N/NC(C)(C)C	> 100 µM	> 100 µM	> 100 µM	–	> 100 µM	–	–	> 100 µM	> 100 µM	> 100 µM	–	> 100 µM	> 100 µM	> 100 µM	> 100 µM	–	> 100 µM	> 100 µM	> 100 µM	> 100 µM
COc1cc(C)cc2c1c(=O)c1ccccc1n2C	> 100 µM	> 100 µM	62.5 µM	> 100 µM	> 100 µM	> 100 µM	66 µM	73.8 µM	45.3 µM	> 100 µM	–	> 100 µM	99.4 µM	> 100 µM	49.9 µM	> 100 µM	> 100 µM	> 100 µM	79.1 µM	81.5 µM
